Assay results reported in patent US10251931B2, “Cyclic peptides and methods using same” (priority 2014, dated 2019).
“Also recorded” adds a separate entry of the source. Starred links: 1 amine or outer side, 2 acyl side, 3 side chain; linkers in the order of their positions; H or OH if unused. Positions of bridges follow the written chain, without caps; N, C: chain ends. Non-standard residues stand in square brackets, D forms with d. Residues, ends and D or L forms follow the SMILES beside them. ξ: configuration not given here. Pro(cis-4-Trz(4-CH2CH2Ph)) = O=C(O)[C@@H]1C[C@H](n2cc(CCc3ccccc3)nn2)CN1; X4 = O=C([C@@H]1C[C@H](n2cc(C3C4CC5CC(C4)CC3C5)nn2)CN1[*:1])[*:2]; Ile(3ξ) = CCC(C)[C@H](N)C(=O)O; Orn = NCCC[C@H](N)C(=O)O; Dab = NCC[C@H](N)C(=O)O; ξD = NC(CC(=O)O)C(=O)O

Molecular target: T1, HIV-1 gp120 (Human immunodeficiency virus type 1 group M subtype B, UniProt P35961)
T1 construct: Expression and Purification of Wild-Type gp120YU-2; made in house; host or cells: HEK 293F
Format: binding
Experimental: SPR competition binding assays were used to assess the structural elements required for cyclic hexapeptide binding to gp120. […] In an attempt to restore the lost contact, the length of the two linkers was changed (Linker 1 and Linker 2 in FIG. 12).
SPR experiments were performed on a Biacore 3000 optical biosensor (GE Healthcare). All experiments were carried out at 25° C. using standard PBS buffer pH=7.4 with 0.005% surfactant Tween. A CM5 sensor chip was derivatized by standard 1-ethyl-3-(3-dimethylaminopropyl) carbodiimide (EDC)/N-hydroxysuccinimide (NHS) chemistry, and coupling was done through ligand amine groups. Antibody 2B6R (α-human IL5R) was immobilized for negative control surfaces. For competition experiments, soluble four domain CD4 and 17b antibody were immobilized on the surface through standard EDC/NHS chemistry. For kinetic analyses, typically 2000-3000 RUs of protein reagents were immobilized on SPR chips, and analytes were passed over the surface at 50-100 μL/min. Surface regeneration was achieved by a 5 μL injection of 10 mM HCl solution at 100 μL/min. […] Regeneration of the surface was achieved by a single 10 second pulse of 1.3 M NaCl/35 mM NaOH and single 5-second pulse of 10 mM glycine, pH 1.5, for sCD4 and mAb 17b, respectively. All analyses were performed in triplicate.
The inhibition curve was converted into a calibration curve by the use of a fitting function. The fitting was done using the 4-parameter Equation (1) from BIAevaluation software,
The cyclic peptides of the invention were tested against HIV-1 gp120 by SPR competition assays as described elsewhere herein. A mixture of the cyclic peptide/gp120 solutions was passed over SPR chip immobilized with CD4 and 17b separately. The competition assay evaluated the ability of each peptide to inhibit the binding between gp120 and both soluble CD4 and 17b antibody, a surrogate for co-receptor.

SMILES | Dual receptor site (CD4 and 17b) inhibition of gp120, in words (SPR competition) | IC50 value in words (SPR competition) | fold improvement vs AAR031 (two-carbon Linker 1 (Dab)) [fold]
CC[C@H](C)[C@@H]1NC(=O)[C@H](CC(N)=O)NC(=O)[C@H](CC(N)=O)NC(=O)[C@@H](N)CCC(=O)NCCCC[C@@H](C(N)=O)NC(=O)[C@H](Cc2c[nH]c3ccccc23)NC(=O)[C@@H]2C[C@H](n3cc(CCc4ccccc4)nn3)CN2C1=O [AAR026, 2,2′-((3S,6S,15S,18S,21S,24S,28S,29aS)-3-((1H-indol-3-yl)methyl)-15-amino-24-((S)-sec-butyl)-6-carbamoyl-1,4,12,16,19,22,25-heptaoxo-28-(4-phenethyl-1H-1,2,3-triazol-1-yl)octacosahydro-1H-pyrrolo[2,1-f][1,4,7,10,13,16,22]heptaazacycloheptacosine-18,21-diyl)diacetamide] (H-ENNI[Pro(cis-4-Trz(4-CH2CH2Ph))]WK-NH2; lactam 1-7) | retained the dual receptor site inhibitory signature of linear PTs; also recorded: dual inhibitors | – | –
CCC(C)[C@@H]1NC(=O)[C@H](CC(N)=O)NC(=O)[C@@H](N)CC(=O)NCCCC[C@@H](C(N)=O)NC(=O)[C@H](Cc2c[nH]c3ccccc23)NC(=O)[C@@H]2C[C@H](n3cc(C4C5CC6CC(C5)CC4C6)nn3)CN2C1=O (stereo partly drawn) [AAR029F, (3S,6S,14S,17S,20S,24S,25aS)-3-((1H-indol-3-yl)methyl)-24-(4-((1R,3S,5S,7S)-adamantan-2-yl)-1H-1,2,3-triazol-1-yl)-14-amino-17-(2-amino-2-oxoethyl)-20-(sec-butyl)-1,4,12,15,18,21-hexaoxotetracosahydro-1H-pyrrolo[2,1-f][1,4,7,10,13,18]hexaazacyclotricosine-6-carboxamide] (H-DN[Ile(3ξ)][X4]WK-NH2; lactam 1-6) | dual inhibitors | – | –
CC[C@H](C)[C@@H]1NC(=O)[C@H](CC(N)=O)NC(=O)[C@@H](N)CCC(=O)NCC[C@@H](C(N)=O)NC(=O)[C@H](Cc2c[nH]c3ccccc23)NC(=O)[C@@H]2C[C@H](n3cc(CCc4ccccc4)nn3)CN2C1=O [AAR030, (3S,6S,13S,16S,19S,23S,24aS)-3-((1H-indol-3-yl)methyl)-13-amino-16-(2-amino-2-oxoethyl)-19-((S)-sec-butyl)-1,4,10,14,17,20-hexaoxo-23-(4-phenethyl-1H-1,2,3-triazol-1-yl)tetracosahydropyrrolo[1,2-g][1,4,7,10,13,17]hexaazacyclodocosine-6-carboxamide] (H-ENI[Pro(cis-4-Trz(4-CH2CH2Ph))]W[Dab]-NH2; lactam 1-6) | inactive | – | –
CC[C@H](C)[C@@H]1NC(=O)[C@H](CC(N)=O)NC(=O)[C@@H](N)CC(=O)NCCC[C@@H](C(N)=O)NC(=O)[C@H](Cc2c[nH]c3ccccc23)NC(=O)[C@@H]2C[C@H](n3cc(CCc4ccccc4)nn3)CN2C1=O [AAR031, (3S,6S,13S,16S,19S,23S,24aS)-3-((1H-indol-3-yl)methyl)-13-amino-16-(2-amino-2-oxoethyl)-19-((S)-sec-butyl)-1,4,11,14,17,20-hexaoxo-23-(4-phenethyl-1H-1,2,3-triazol-1-yl)tetracosahydropyrrolo[2,1-f][1,4,7,10,13,18]hexaazacyclodocosine-6-carboxamide] (H-DNI[Pro(cis-4-Trz(4-CH2CH2Ph))]W[Orn]-NH2; lactam 1-6) | dual inhibitors | micro molar | –
CC[C@H](C)[C@@H]1NC(=O)[C@H](CC(N)=O)NC(=O)C(N)CC(=O)NCC[C@@H](C(N)=O)NC(=O)[C@H](Cc2c[nH]c3ccccc23)NC(=O)[C@@H]2C[C@H](n3cc(CCc4ccccc4)nn3)CN2C1=O (stereo partly drawn) [AAR032, (3S,6S,15S,18S,22S,23aS)-3-((1H-indol-3-yl)methyl)-12-amino-15-(2-amino-2-oxoethyl)-18-((S)-sec-butyl)-1,4,10,13,16,19-hexaoxo-22-(4-phenethyl-1H-1,2,3-triazol-1-yl)docosahydro-1H-pyrrolo[1,2-g][1,4,7,10,13,17]hexaazacyclohenicosine-6-carboxamide] (H-[ξD]NI[Pro(cis-4-Trz(4-CH2CH2Ph))]W[Dab]-NH2; lactam 1-6) | dual inhibitors | – | ~10
